Assay [1] can be described thus: Inhibition of Plasmodium falciparum DHODH using L-dihydroorotate as substrate after 20 mins by DCIP-based assay.
Assay [2] in a line: Selectivity ratio of IC50 for human DHODH to IC50 for Plasmodium falciparum DHODH.
Assay [3] has as its system Plasmodium falciparum. The experiment in a line: Antiparasitic activity against Plasmodium falciparum NF54 infected in human erythrocytes by [3H]-hypoxanthine incorporation assay. The format is functional, cell-based.
A short description of assay [4]: Inhibition of Plasmodium falciparum DHODH.
Assay [5] in a line: Inhibition of Plasmodium falciparum DHODH expressed in Escherichia coli using L-dihydroorotate as substrate by DCIP-based spectrophotometric method.

`COc1cccc2c1ncn2-c1ccc(C(=O)NC2CC2)s1` showed an IC50 in assay [1] of 44 nM.

In the case of `Cc1c(C(=O)Nc2cc(Cl)cc(Cl)c2)cccc1[N+](=O)[O-]`, the Ratio IC50 in assay [2] was 70 to 12500. The 50% inhibitory concentration (IC50) was 5 to 12 µM in assay [3] and 20 to 800 nM in assay [4].

In the case of `O=C(Nc1ccc(Cl)cc1Cl)c1ccc2ccccc2c1`, the Ratio IC50 in assay [2] lay within 70 to 12500. Further, the IC50 in assay [3] lay in the range of 5 to 12 µM; in assay [4], 20 to 800 nM.

As to `COc1ccccc1NC(=O)Nc1cccc2ccccc12`, the Ratio IC50 in assay [2] lay in the range of 70 to 12500. Also, the IC50 in assay [3] is 5 to 12 µM; in assay [4], 20 to 800 nM.

Regarding `N#Cc1cccc2c1ncn2-c1ccc(C(=O)NC2CC2)s1`, the IC50 in assay [1] was determined as 50 nM. In other words, the double-digit nanomolar range.

Regarding `CCOC(=O)C(=CNc1cccc(N(C)C)c1)C(=O)OCC`, the IC50 in assay [3] was in the range of 5 to 12 µM.

Regarding `Cc1cc(Nc2cc(F)c(C(F)(F)F)c(F)c2)n2nc(C(C)(F)F)nc2n1`, in assay [5], the IC50 was determined as 12 nM.

In assay [5], `Cc1cc(Nc2ccc(C(F)(F)F)cc2)n2nc(C(F)(F)F)nc2n1` returned an IC50 of 35 nM.

`COc1ccc2c(c1)ncn2-c1ccc(C(=O)NC2CC2)s1` yielded an IC50 in assay [1] of 22 nM.

Compound `Cc1cc(Nc2ccc(C(F)(F)F)c(F)c2)n2nc(C(F)(F)F)nc2n1` returned an IC50 in assay [5] of 35 nM.

Take `Cc1cc(Nc2ccc(C(F)(F)F)cc2)n2ccnc2n1`: half-maximal inhibition in assay [5] (IC50) required 770 nM.

`Cc1cc(Nc2cc(F)c(C(F)(F)F)c(F)c2)n2nc(C(F)(F)F)nc2n1` yielded an IC50 in assay [5] of 22 nM.
